Measured values from patent US8551959B2, “Glycolipid and use thereof” (RIKEN, priority 2008, dated 2013).
Entries after “also recorded” stand apart in the source; their conditions may differ.

Legend:
[1] = test system: human NKT cells; details: cited from earlier work
[2] = test system: NKT cells; details: non-patent document 10; cited from earlier work
[3] = test system: IFN-γ; experiment: IFN-γ content in serum (sandwich ELISA) after tail vein administration of synthetic glycolipid to mice; assay type: in vivo, C57BL/6 mice; details: for IFN-γ production level in serum compared with α-GalCer and carba-glycolipid A: 100 μg/kg body weight, FIG. 1; for IFN-γ production level in serum compared with α-GalCer and carba-glycolipid A / IFN-γ production level in serum compared with α-GalCer: 6-60 hr
Experimental: (§1) DMSO solutions (1 mg/mL concentration) of α-GalCer, carba-glycolipid A, compound 2-9, compound 3-4, compound 3-7 and compound 3-10 were prepared. The above-mentioned DMSO solutions were diluted with saline (manufactured by Otsuka Pharmaceutical Co., Ltd.) containing 0.5% Tween 20 (Bio-Rad) such that the dose would be 100 μg/kg body weight when 200 μL is administered to one mouse from the tail vein.
Each of the prepared solutions (200 μL) of carba-glycolipid A, compound 2-9, compound 3-4, compound 3-7 and compound 3-10 was injected to C57BL/6 mice (5 per group) from the tail vein. α-GalCer was used as a control substance, and 200 μL of α-GalCer solution prepared to a dose of 100 μg/kg body weight according to a similar method was injected from the tail vein. A group administered with a medium (200 μL of saline containing 0.5% Tween 20) was taken as a negative control. The blood (80 μL) was taken from the orbital plexus venosus 6, 12, 24, 36, 48 and 60 hr after administration, and the serum was prepared.
The content of IFN-γ in the serum after lapse of 6, 12, 24, 36, 48 and 60 hr from the administration was measured by sandwich ELISA (ENDOGEN). The measurement results (average value) of the IFN-γ production level and the standard deviation (STDEV) thereof are shown in FIG. 1.
By a method similar to Experimental Example 1, the content of IFN-γ in the serum after lapse of 6, 12, 24, 36, 48 and 60 hr from the administration of α-GalCer, compound 2-9, compound 3-4, compound 3-7, compound 3-10, compound 3-13 and compound 3-16 was measured. The measurement results (average value) of the IFN-γ production level and the standard deviation (STDEV) thereof are shown in FIG. 4.
By a method similar to Experimental Example 1 except that the dose of α-GalCer was 2 μg/mouse and the dose of compound 2-9 was 2 μg/mouse, 0.2 μg/mouse, 0.02 μg/mouse, 0.002 μg/mouse or 0.0002 μg/mouse, the content of IFN-γ in the serum after lapse of 6, 12, 24, 36, 48 and 60 hr from the administration of α-GalCer and compound 2-9 was measured. The measurement results (average value) of the IFN-γ production level and the standard deviation (STDEV) thereof are shown in FIG. 5.

[4] = test system: IL-4; experiment: IL-4 content in serum (Cytometric bead array) after tail vein administration of synthetic glycolipid to mice; assay type: in vivo, C57BL/6 mice; details: Experimental Example 3; 2, 0.2 or 0.02 μg/mouse; 3 and 6 hr; FIG. 7
Experimental: as §1, with “vein. […]” for “vein.”
The content of IL-4 in the serum after lapse of 3, 6 and 12 hr from the administration was measured by Cytometric bead array system (BD Biosciences), which is one kind of the ELISA method. […]
By a method similar to Experimental Example 1, the content of IL-4 in the serum after lapse of 3 and 6 hr from the administration of α-GalCer, compound 2-9, compound 3-4, compound 3-7, compound 3-10, compound 3-13 and compound 3-16 was measured. […]
By a method similar to Experimental Example 1 except that the dose of α-GalCer and compound 2-9 was 2 μg/mouse, 0.2 μg/mouse or 0.02 μg/mouse, the content of IL-4 in the serum after lapse of 3 and 6 hr from the administration of α-GalCer and compound 2-9 was measured. […]

[5] = test system: IL-12; experiment: IL-12 content in serum (Cytometric bead array) after tail vein administration of synthetic glycolipid to mice; assay type: in vivo, C57BL/6 mice; details: Experimental Example 3; 2, 0.2 or 0.02 μg/mouse; 3 and 6 hr; FIG. 9
Experimental: as §1, with “vein. […]” for “vein.”
The content of IL-12 in the serum after lapse of 3, 6 and 12 hr from the administration was measured by Cytometric bead array system (BD Biosciences), which is one kind of the ELISA method. […]
By a method similar to Experimental Example 1, the content of IL-12(p70) in the serum after lapse of 3 and 6 hr from the administration of α-GalCer, compound 2-9, compound 3-4, compound 3-7, compound 3-10, compound 3-13 and compound 3-16 was measured. […]
By a method similar to Experimental Example 1 except that the dose of α-GalCer and compound 2-9 was 2 μg/mouse, 0.2 μg/mouse or 0.02 μg/mouse, the content of IL-12(p70) in the serum after lapse of 3 and 6 hr from the administration of α-GalCer and compound 2-9 was measured. […]

[6] = non-patent document 7; cited from earlier work
[7] = Experimental Example 1, tail vein
[8] = Experimental Example 1, conclusion from IFN-γ, IL-4 and IL-12 levels
[9] = Experimental Example 2, conclusion from IFN-γ, IL-4 and IL-12 levels
[10] = Experimental Example 2, tail vein, FIG. 4

SMILES	IFN-γ production level in serum compared with α-GalCer and carba-glycolipid A [3, 7]	Selective induction of IFN-γ production compared to α-GalCer and carba-glycolipid A [3, 8]	Selective induction of IFN-γ production compared to α-GalCer [3, 9]	IFN-γ production level in serum compared with α-GalCer [3, 10]	further results
CCCCCCCCCCCCCCCCCCCCCCCCCC(=O)N[C@@H](CO[C@H]1CC(CO)[C@H](O)C(O)C1O)[C@H](O)[C@H](O)CCCCCCCCCCCCCC (stereo partly shown) [carba-glycolipid A]	–	–	–	–	Activity on human NKT cells in vitro [1]: strong activity; Induction of IFN-γ production by NKT cells [2]: strongly induces IFN-γ production
CCCCCCCCCCCCCCCCCCCCCCCCCC(=O)N[C@@H](CO[C@H]1OC(COC)[C@H](O)[C@H](O)C1O)[C@H](O)[C@H](O)CCCCCCCCCCCCCC (stereo partly shown) [compound 2-9]	larger amount of IFN-γ than α-GalCer and carba-glycolipid A; also recorded: most strongly	selectively induced production of IFN-γ in larger amounts	selectively induced production of IFN-γ in larger amounts	larger amount of IFN-γ than α-GalCer; also recorded: most strongly	IFN-γ production level in serum compared with α-GalCer ([3]; Experimental Example 3, compound 2-9 at 2 to 0.0002 μg/mouse, α-GalCer 2 μg/mouse, FIG. 5): larger amount of IFN-γ than α-GalCer even by administration at a lower concentration; Selective induction of IFN-γ production compared to α-GalCer ([3]; Experimental Example 3, lower doses of compound 2-9): selectively induced production of IFN-γ in larger amounts; IL-4 production level in serum [4]: decreased as the dose of compound 2-9 was reduced; IL-12(p70) production level in serum as compared with α-GalCer [5]: up to 4 fold
CCCCCCCCCCCCCCCCCCCCCCCCCC(=O)N[C@@H](CO[C@H]1OC(CC)[C@H](O)[C@H](O)C1O)[C@H](O)[C@H](O)CCCCCCCCCCCCCC (stereo partly shown) [compound 3-4]	larger amount of IFN-γ than α-GalCer and carba-glycolipid A	selectively induced production of IFN-γ in larger amounts	selectively induced production of IFN-γ in larger amounts	larger amount of IFN-γ than α-GalCer	–
CCCCCCCCCCCCCCCCCCCCCCCCCC(=O)N[C@@H](CO[C@H]1OC(CF)[C@H](O)[C@H](O)C1O)[C@H](O)[C@H](O)CCCCCCCCCCCCCC (stereo partly shown) [compound 3-7]	larger amount of IFN-γ than α-GalCer and carba-glycolipid A	selectively induced production of IFN-γ in larger amounts	selectively induced production of IFN-γ in larger amounts	larger amount of IFN-γ than α-GalCer	–
CCCCCCCCCCCCCCCCCCCCCCCCCC(=O)N[C@@H](CO[C@H]1OC(C)[C@H](O)[C@H](O)C1O)[C@H](O)[C@H](O)CCCCCCCCCCCCCC (stereo partly shown) [compound 3-10]	larger amount of IFN-γ than α-GalCer and carba-glycolipid A	selectively induced production of IFN-γ in larger amounts	selectively induced production of IFN-γ in larger amounts	larger amount of IFN-γ than α-GalCer	–
CCCCCCCCCCCCCCCCCCCCCCCCCC(=O)N[C@@H](CO[C@H]1OC(COCC)[C@H](O)[C@H](O)C1O)[C@H](O)[C@H](O)CCCCCCCCCCCCCC (stereo partly shown) [compound 3-13]	–	–	selectively induced production of IFN-γ in larger amounts	larger amount of IFN-γ than α-GalCer	–
CCCCCCCCCCCCCCCCCCCCCCCCCC(=O)N[C@@H](CO[C@H]1OC(COCCC)[C@H](O)[C@H](O)C1O)[C@H](O)[C@H](O)CCCCCCCCCCCCCC (stereo partly shown) [compound 3-16]	–	–	selectively induced production of IFN-γ in larger amounts	larger amount of IFN-γ than α-GalCer	–
CCCCCCCCCCCCCCCCCCCCCCCCCC(=O)N[C@@H](COC1OC(CO)C(O)C(O)C1O)[C@H](O)[C@H](O)CCCCCCCCCCCCCC (stereo partly drawn) [α-GalCer, reference compound]	–	–	–	–	IFN-γ/IL-4 ratio ([3]; Experimental Example 1): 2; Immunostimulatory activity in a series of synthesis analogs [6]: shows the strongest activity
